The NIST ThermoML archive (doi:10.1016/j.jct.2005.04.013)
± gives the expanded uncertainty stated by the source.

experiment: activity coefficient (dimensionless); of the first substance listed, at infinite dilution; xn = mol fraction of the nth substance listed; conditions: 363.65 K; Liquid; x1 = 0

Question: With `CCO` [ethanol] + CCCCCCCC[n+]1ccn(C)c1.F[B-](F)(F)F as the compound, how does the activity coefficient read?
Answer: 0.81 ± 0.06

Question: For `CCO` [ethanol] + CCCCn1cc[n+](C)c1.F[B-](F)(F)F, which activity coefficient is on record?
Answer: 1.25 ± 0.08

Question: With `CCO` [ethanol] + CCCCn1cc[n+](C)c1.[Cl-] as the compound, how does the activity coefficient read?
Answer: 0.2 ± 0.07

Question: Which activity coefficient does the source give for `CCO` [ethanol] + CCn1cc[n+](C)c1.F[B-](F)(F)F here?
Answer: 1.33 ± 0.09

Question: For `CO` [methanol] + CCn1cc[n+](C)c1.F[B-](F)(F)F, which activity coefficient is on record?
Answer: 0.4 ± 0.07

Question: For `C1CCOC1` [tetrahydrofuran] + CCCCCCCC[n+]1ccn(C)c1.F[B-](F)(F)F, which activity coefficient is on record?
Answer: 1.09 ± 0.06

Question: Which activity coefficient does the source give for `C1CCOC1` [tetrahydrofuran] + CCCCn1cc[n+](C)c1.F[B-](F)(F)F here?
Answer: 2 ± 0.18

Question: With `C1CCOC1` [tetrahydrofuran] + CCCCn1cc[n+](C)c1.[Cl-] as the compound, how does the activity coefficient read?
Answer: 3.81 ± 0.35

Question: With `C1CCOC1` [tetrahydrofuran] + CCn1cc[n+](C)c1.F[B-](F)(F)F as the compound, how does the activity coefficient read?
Answer: 3.48 ± 0.32

Question: For `O` [water] + CCCCCCCC[n+]1ccn(C)c1.F[B-](F)(F)F, which activity coefficient is on record?
Answer: 0.68 ± 0.06

Question: With `O` [water] + CCCCn1cc[n+](C)c1.F[B-](F)(F)F as the compound, how does the activity coefficient read?
Answer: 0.61 ± 0.06

Question: With `O` [water] + CCCCn1cc[n+](C)c1.[Cl-] as the compound, how does the activity coefficient read?
Answer: 0.1

Question: Which activity coefficient does the source give for `O` [water] + CCn1cc[n+](C)c1.F[B-](F)(F)F here?
Answer: 0.45 ± 0.07
